Data on 24 compounds can be found in patent publication EP4600243A2, “NOVEL BICYCLIC HETEROCYCLYL COMPOUNDS AND USE THEREOF” (Jeil Pharmaceutical Co., Ltd., priority 2022, dated 2024).

For this assay, the target named is T1, protein-protein interaction between SOS1 and KRAS G12C (Homo sapiens, UniProt Q07889).
T1 construct: purchased Cisbio 64KRASG12PEG
T1 sequence (Q07889 1-1333): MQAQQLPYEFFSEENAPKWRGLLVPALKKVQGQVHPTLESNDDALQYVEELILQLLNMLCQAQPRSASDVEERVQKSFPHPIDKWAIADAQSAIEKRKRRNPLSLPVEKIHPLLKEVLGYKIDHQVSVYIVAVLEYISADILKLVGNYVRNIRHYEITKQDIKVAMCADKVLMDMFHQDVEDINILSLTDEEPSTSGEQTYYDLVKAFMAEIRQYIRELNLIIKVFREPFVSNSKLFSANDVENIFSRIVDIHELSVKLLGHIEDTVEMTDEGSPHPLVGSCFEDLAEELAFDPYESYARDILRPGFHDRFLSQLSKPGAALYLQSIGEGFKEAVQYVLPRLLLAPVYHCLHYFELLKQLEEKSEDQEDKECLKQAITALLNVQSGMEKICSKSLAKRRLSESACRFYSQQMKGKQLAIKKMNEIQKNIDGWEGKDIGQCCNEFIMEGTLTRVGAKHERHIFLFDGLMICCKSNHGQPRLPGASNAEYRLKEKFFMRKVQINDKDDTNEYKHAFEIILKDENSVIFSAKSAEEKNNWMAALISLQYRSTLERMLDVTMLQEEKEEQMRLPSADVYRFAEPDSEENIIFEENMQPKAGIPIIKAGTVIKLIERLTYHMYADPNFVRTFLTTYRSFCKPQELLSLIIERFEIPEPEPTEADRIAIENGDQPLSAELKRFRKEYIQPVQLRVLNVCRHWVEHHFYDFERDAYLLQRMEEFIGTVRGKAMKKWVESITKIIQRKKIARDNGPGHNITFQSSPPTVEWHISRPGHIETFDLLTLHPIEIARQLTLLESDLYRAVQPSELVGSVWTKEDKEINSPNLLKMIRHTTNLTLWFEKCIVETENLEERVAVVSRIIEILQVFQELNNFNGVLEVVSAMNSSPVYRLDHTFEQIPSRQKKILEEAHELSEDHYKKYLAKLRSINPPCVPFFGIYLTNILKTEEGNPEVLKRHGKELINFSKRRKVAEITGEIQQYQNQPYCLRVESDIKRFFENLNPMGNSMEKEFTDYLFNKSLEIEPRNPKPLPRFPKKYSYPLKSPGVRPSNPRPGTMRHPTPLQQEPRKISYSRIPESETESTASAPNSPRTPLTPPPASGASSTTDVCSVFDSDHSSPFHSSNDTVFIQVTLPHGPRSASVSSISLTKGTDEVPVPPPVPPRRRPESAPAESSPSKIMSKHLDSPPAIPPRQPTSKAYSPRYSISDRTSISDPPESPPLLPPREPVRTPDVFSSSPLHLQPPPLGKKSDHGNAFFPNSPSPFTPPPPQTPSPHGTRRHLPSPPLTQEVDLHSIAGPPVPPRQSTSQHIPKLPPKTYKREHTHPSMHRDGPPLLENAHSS
Nature of the assay: KRAS::SOS1 HTRF binding analysis (KRAS G12C/SOS1 binding kit). As to conditions: compound at 0.1 uM. As to the method: 1-1. KRAS::SOS1 HTRF binding analysis
An SOS1 inhibitory ability of the example compounds of the present invention was confirmed by identifying the effect of inhibiting a protein-protein interaction between SOS1 and KRAS G12C of the compounds according to examples of the present invention.
Specifically, a KRAS G12C/SOS1 binding kit (64KRASG12PEG, Cisbio, France) was purchased and used. 2 µℓ of Tag1-KRAS G12C and 2 µℓ of GTP were premixed and dispensed 4 µl each into a 384 well plate (6007290, PerkinElmer, USA). 2 µℓ of the compound and 4 µℓ of Tag2-SOS1 were placed and then 10 µℓ of premixed Anti-Tag1 XL665 antibody and Anti-Tag2 Tb cryptate antibody was dispensed to each well. The plates were sealed and allowed to react at room temperature for one hour and 40 minutes, and then 665 nm wavelength and 620 nm wavelength were measured using a HTRF® compatible reader (Synergy H4, BioTeK, USA), and the ratio of receptor and donor emission signals for each well was calculated as 665 nm/620 nm×10^4.
(+++: more than 70 to 100% inhibition, ++: more than 40 to 70% inhibition, +: 0 to 40% inhibition) [Table 4]

Take `C[C@@H]1CN(c2ccc3nncc(N[C@H](C)c4cccc(C(F)F)c4F)c3c2)CCO1` [Example 57, N-((R)-1-(3-(difluoromethyl)-2-fluorophenyl)ethyl)-6-((R)-2-methylmorpholino)cinnolin-4-amine]: the inhibition at 0.1 µM lay in the range of 0 to 40%. With `Cc1c([C@@H](C)Nc2cnnc3ccc(N4CC5CC(C4)O5)cc23)cccc1C(F)(F)F` [Example 48, 6-(6-oxa-3-azabicyclo[3.1.1]heptan-3-yl)-N-((R)-1-(2-methyl-3-(trifluoromethyl)phenyl)ethyl)cinnolin-4-amine] the figure was 0 to 40%; with `Cc1c(C#N)cccc1[C@@H](C)Nc1cnnc2ccc(C3=CCN(C)CC3)cc12` [Example 52, (R)-2-methyl-3-(1-(6-(1-methyl-1,2,3,6-tetrahydropyridin-4-yl)cinnolin-4-ylamino)ethyl)benzonitrile], 0 to 40%; with `C[C@@H](Nc1cnnc2ccc(C3=CCN(C)CC3)cc12)c1cccc(C#N)c1` [Example 53, (R)-3-(1-(6-(1-methyl-1,2,3,6-tetrahydropyridin-4-yl)cinnolin-4-ylamino)ethyl)benzonitrile], 0 to 40%. Consider `C[C@@H](Nc1cnnc2ccc(N3CC(C)(O)C3)cc12)c1cccc(C(F)F)c1` [Example 45, (R)-1-(4-((1-(3-(difluoromethyl)phenyl)ethyl)amino)cinnolin-6-yl)-3-methylazetidin-3-ol], for which the inhibition at 0.1 µM was in the range of 0 to 40%. With `C[C@@H](Nc1cnnc2ccc(N[C@@H]3CCN(C)C3)cc12)c1cccc(C(F)F)c1F` [Example 38, N4-((R)-1-(3-(difluoromethyl)-2-fluorophenyl)ethyl)-N6-((R)-1-methylpyrrolidin-3-yl)cinnolin-4,6-diamine] the figure was 40 to 70%; with `C[C@@H](Nc1cnnc2ccc(N3C[C@@H]4C[C@H]3CO4)cc12)c1cccc(C(F)F)c1F` [Example 14, 6-((1S,4S)-2-oxa-5-azabicyclo[2.2.1]heptan-5-yl)-N-((R)-1-(3-(difluoromethyl)-2-fluorophenyl)ethyl)cinnolin-4-amine], 0 to 40%.

For `C[C@@H](Nc1cnnc2ccc(N[C@@H]3CCNC3)cc12)c1cccc(C#N)c1` [Example 54, 3-((R)-1-(6-((R)-pyrrolidin-3-ylamino)cinnolin-4-ylamino)ethyl)benzonitrile], the inhibition at 0.1 µM fell in the range of 0 to 40%. With `C[C@@H](Nc1cnnc2ccc(N3CC4CC(C3)O4)cc12)c1cccc(F)c1F` [Example 56, 6-(6-oxa-3-azabicyclo[3.1.1]heptan-3-yl)-N-((R)-1-(2,3-difluorophenyl)ethyl)cinnolin-4-amine] the figure was 0 to 40%. Take `C[C@@H](Nc1cnnc2ccc(N3CCN(C(=O)[C@@H]4CCOC4)CC3)cc12)c1cccc(C(F)F)c1F` [Example 64, (4-(4-((R)-1-(3-(difluoromethyl)-2-fluorophenyl)ethylamino)cinnolin-6-yl)piperazin-1-yl)((R)-tetrahydrofuran-3-yl)methanone]: the inhibition at 0.1 µM lay within 70 to 100%. As for `C[C@@H](Nc1cnnc2ccc(N3CCN(C(=O)C4COC4)CC3)cc12)c1cccc(C(F)F)c1F` [Example 41, (R)-(4-(4-(1-(3-(difluoromethyl)-2-fluorophenyl)ethylamino)cinnolin-6-yl)piperazin-1-yl)(oxetan-3-yl)methanone], the figure is 70 to 100%; as for `COC1CN(c2ccc3nncc(N[C@H](C)c4cccc(C(F)F)c4F)c3c2)C1` [Example 31, (R)-N-(1-(3-(difluoromethyl)-2-fluorophenyl)ethyl)-6-(3-methoxyazetidin-1-yl)cinnolin-4-amine], 0 to 40%; as for `C[C@@H](Nc1cnnc2ccc(N3CCC(C)(O)CC3)cc12)c1cccc(C(F)F)c1F` [Example 19, (R)-1-(4-((1-(3-(difluoromethyl)-2-fluorophenyl)ethyl)amino)cinnolin-6-yl)-4-methylpiperidin-4-ol], 40 to 70%. With `COC1CC2(C1)CN(c1ccc3nncc(N[C@H](C)c4cccc(C(F)F)c4F)c3c1)C2` [Example 34, (R)-N-(1-(3-(difluoromethyl)-2-fluorophenyl)ethyl)-6-(6-methoxy-2-azaspiro[3.3]heptan-2-yl)cinnolin-4-amine] the figure was 0 to 40%; with `C[C@@H](Nc1cnnc2ccc(N[C@H]3CCOC3)cc12)c1cccc(C(F)F)c1F` [Example 36, N4-((R)-1-(3-(difluoromethyl)-2-fluorophenyl)ethyl)-N6-((S)-tetrahydrofuran-3-yl)cinnolin-4,6-diamine], 0 to 40%. As for `C[C@@H](Nc1cnnc2ccc(N3CCC(N(C)C)CC3)cc12)c1cccc(C(F)F)c1F` [Example 6, (R)-N-(1-(3-(difluoromethyl)-2-fluorophenyl)ethyl)-6-(4-(dimethylamino)piperidin-1-yl)cinnolin-4-amine], the inhibition at 0.1 µM was 40 to 70%.

On to `C[C@@H](Nc1cnnc2ccc(C3=CCN(C(=O)C4CC4)CC3)cc12)c1cccc(C(F)F)c1F` [Example 61, (R)-cyclopropyl(4-(4-(1-(3-(difluoromethyl)-2-fluorophenyl)ethylamino)cinnolin-6-yl)-5,6-dihydropyridin-1(2H)-yl)methanone], for which the inhibition at 0.1 µM is 0 to 40%.

For the compound `C[C@@H](Nc1cnnc2ccc(N3CC4(CN(C)C4)C3)cc12)c1cccc(C(F)F)c1F` [Example 7, (R)-N-(1-(3-(difluoromethyl)-2-fluorophenyl)ethyl)-6-(6-methyl-2,6-diazaspiro[3.3]heptan-2-yl)cinnolin-4-amine], the inhibition at 0.1 µM is 70 to 100%.

With `C[C@@H](Nc1cnnc2ccc(C3=CCN(C)CC3)cc12)c1cccc(C(F)F)c1F` [Example 3, (R)-N-(1-(3-(difluoromethyl)-2-fluorophenyl)ethyl)-6-(1-methyl-1,2,3,6-tetrahydropyridin-4-yl)cinnolin-4-amine], the inhibition at 0.1 µM lay within 70 to 100%.

Take `C[C@@H](Nc1cnnc2ccc(C3=CCN(C(=O)C4COC4)CC3)cc12)c1cccc(C(F)F)c1F` [Example 60, (R)-(4-(4-(1-(3-(difluoromethyl)-2-fluorophenyl)ethylamino)cinnolin-6-yl)-5,6-dihydropyridin-1(2H)-yl)(oxetan-3-yl)methanone]: the inhibition at 0.1 µM was 70 to 100%.

For `C[C@@H](Nc1cnnc2ccc(N3CC(C)(O)C3)cc12)c1cccc(C(F)F)c1F` [Example 32, (R)-1-(4-((1-(3-(difluoromethyl)-2-fluorophenyl)ethyl)amino)cinnolin-6-yl)-3-methylazetidin-3-ol], the inhibition at 0.1 µM was in the range of 0 to 40%. For `CO[C@H]1CCCN(c2ccc3nncc(N[C@H](C)c4cccc(C(F)F)c4F)c3c2)C1` [Example 24, N-((R)-1-(3-(difluoromethyl)-2-fluorophenyl)ethyl)-6-((S)-3-methoxypiperidin-1-yl)cinnolin-4-amine], the inhibition at 0.1 µM fell in the range of 0 to 40%. `C[C@@H](Nc1cnnc2ccc(N3C[C@H]4C[C@@H]3CO4)cc12)c1cccc(C(F)F)c1F` [Example 13, 6-((1R,4R)-2-oxa-5-azabicyclo[2.2.1]heptan-5-yl)-N-((R)-1-(3-(difluoromethyl)-2-fluorophenyl)ethyl)cinnolin-4-amine]: the inhibition at 0.1 µM lay within 40 to 70%.

Consider `C[C@@H](Nc1cnnc2ccc(N3CCOCC3)cc12)c1cccc(C(F)F)c1F` [Example 10, (R)-N-(1-(3-(difluoromethyl)-2-fluorophenyl)ethyl)-6-morpholinocinnolin-4-amine], for which the inhibition at 0.1 µM was 0 to 40%.
